Publication PMC10507085, “Pharmacological inhibition of TBK1/IKKε blunts immunopathology in a murine model of SARS-CoV-2 infection” (Nature Communications, 2023)

Tests used:
Experiment in all cases: biochemical
Set-up in all cases: KINOMEscan competition binding, DNA-tagged kinase against immobilised ligand, qPCR read-out
Conditions in all cases: read-out: Percent Control
[1] = biological target: PDGFRB (Homo sapiens, UniProt P09619)
[2] = biological target: CSF1R (Homo sapiens, UniProt P07333)
[3] = biological target: MERTK (Homo sapiens, UniProt Q12866)
[4] = biological target: LRRK2 (Homo sapiens, UniProt Q5S007)
[5] = biological target: NEK5 (Homo sapiens, UniProt Q6P3R8)
[6] = biological target: EPHA5 (Homo sapiens, UniProt P54756)
[7] = biological target: PRKACB (Homo sapiens, UniProt P22694)
[8] = biological target: T1, RSK1(Kin.Dom.2-C-terminal) (Homo sapiens, UniProt Q15418)
T1 construct: gene RPS6KA1; Kin.Dom.2 C-terminal

[9] = biological target: SIK1 (Homo sapiens, UniProt P57059)
[10] = biological target: T2, CABC1 (Homo sapiens, UniProt Q8NI60)
T2 construct: gene COQ8A

[11] = biological target: MTOR (Homo sapiens, UniProt P42345)
[12] = biological target: NTRK2 (Homo sapiens, UniProt Q16620)
[13] = biological target: ACVR1B (Homo sapiens, UniProt P36896)
[14] = biological target: MAPK11 (Homo sapiens, UniProt Q15759)
[15] = biological target: STK24 (Homo sapiens, UniProt Q9Y6E0)
[16] = biological target: NTRK3 (Homo sapiens, UniProt Q16288)
[17] = biological target: TGFBR2 (Homo sapiens, UniProt P37173)
[18] = biological target: MAP3K7 (Homo sapiens, UniProt O43318)
[19] = biological target: VRK2 (Homo sapiens, UniProt Q86Y07)
[20] = biological target: TIE1 (Homo sapiens, UniProt P35590)

Sequence of CSF1R (P07333 whole entry): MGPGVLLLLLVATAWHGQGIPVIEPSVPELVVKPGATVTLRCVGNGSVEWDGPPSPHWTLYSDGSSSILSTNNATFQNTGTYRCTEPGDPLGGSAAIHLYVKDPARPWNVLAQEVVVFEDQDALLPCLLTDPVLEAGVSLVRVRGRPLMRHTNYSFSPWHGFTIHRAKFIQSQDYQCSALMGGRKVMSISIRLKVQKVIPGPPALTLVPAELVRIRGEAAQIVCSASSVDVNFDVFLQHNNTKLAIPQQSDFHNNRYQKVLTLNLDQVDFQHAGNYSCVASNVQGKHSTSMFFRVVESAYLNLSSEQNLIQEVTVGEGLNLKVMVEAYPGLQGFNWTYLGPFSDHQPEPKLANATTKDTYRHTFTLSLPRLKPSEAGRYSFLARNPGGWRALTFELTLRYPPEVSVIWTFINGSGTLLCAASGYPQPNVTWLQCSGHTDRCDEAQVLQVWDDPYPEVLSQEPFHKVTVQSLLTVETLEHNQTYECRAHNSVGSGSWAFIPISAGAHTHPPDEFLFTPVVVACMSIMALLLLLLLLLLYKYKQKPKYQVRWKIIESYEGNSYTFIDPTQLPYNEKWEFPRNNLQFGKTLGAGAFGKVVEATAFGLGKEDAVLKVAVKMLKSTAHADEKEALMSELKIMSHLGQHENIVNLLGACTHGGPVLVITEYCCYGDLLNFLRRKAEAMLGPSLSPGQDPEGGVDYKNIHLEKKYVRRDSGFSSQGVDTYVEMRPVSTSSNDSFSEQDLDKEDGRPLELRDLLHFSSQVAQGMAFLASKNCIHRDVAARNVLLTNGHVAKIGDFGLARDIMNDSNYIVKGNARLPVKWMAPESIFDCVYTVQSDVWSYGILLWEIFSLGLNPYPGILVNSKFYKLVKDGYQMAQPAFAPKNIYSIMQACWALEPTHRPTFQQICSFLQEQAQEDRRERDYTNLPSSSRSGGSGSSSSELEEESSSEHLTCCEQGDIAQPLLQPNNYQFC
Sequence of NTRK2 (Q16620 whole entry): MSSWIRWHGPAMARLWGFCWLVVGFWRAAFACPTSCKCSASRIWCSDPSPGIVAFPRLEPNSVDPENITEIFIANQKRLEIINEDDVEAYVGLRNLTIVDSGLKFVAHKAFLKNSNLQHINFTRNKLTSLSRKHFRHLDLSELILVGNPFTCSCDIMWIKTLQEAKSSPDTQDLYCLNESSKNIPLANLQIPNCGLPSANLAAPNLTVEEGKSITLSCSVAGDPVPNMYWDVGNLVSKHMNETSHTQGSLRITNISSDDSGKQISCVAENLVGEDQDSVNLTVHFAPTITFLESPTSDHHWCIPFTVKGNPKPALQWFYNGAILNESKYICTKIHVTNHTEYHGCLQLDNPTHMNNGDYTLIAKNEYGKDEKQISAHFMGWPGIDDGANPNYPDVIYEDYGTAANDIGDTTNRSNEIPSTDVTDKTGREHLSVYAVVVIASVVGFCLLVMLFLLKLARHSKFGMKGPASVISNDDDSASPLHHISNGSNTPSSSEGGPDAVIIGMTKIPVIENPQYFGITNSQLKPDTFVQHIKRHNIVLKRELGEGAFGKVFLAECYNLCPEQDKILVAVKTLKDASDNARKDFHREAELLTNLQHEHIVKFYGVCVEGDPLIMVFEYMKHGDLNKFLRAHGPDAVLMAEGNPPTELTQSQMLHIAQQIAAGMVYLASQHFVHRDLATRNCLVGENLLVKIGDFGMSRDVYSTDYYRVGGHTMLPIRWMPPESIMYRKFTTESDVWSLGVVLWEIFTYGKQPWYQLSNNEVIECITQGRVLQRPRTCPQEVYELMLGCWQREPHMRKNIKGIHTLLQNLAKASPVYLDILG
Sequence of PDGFRB (P09619 whole entry): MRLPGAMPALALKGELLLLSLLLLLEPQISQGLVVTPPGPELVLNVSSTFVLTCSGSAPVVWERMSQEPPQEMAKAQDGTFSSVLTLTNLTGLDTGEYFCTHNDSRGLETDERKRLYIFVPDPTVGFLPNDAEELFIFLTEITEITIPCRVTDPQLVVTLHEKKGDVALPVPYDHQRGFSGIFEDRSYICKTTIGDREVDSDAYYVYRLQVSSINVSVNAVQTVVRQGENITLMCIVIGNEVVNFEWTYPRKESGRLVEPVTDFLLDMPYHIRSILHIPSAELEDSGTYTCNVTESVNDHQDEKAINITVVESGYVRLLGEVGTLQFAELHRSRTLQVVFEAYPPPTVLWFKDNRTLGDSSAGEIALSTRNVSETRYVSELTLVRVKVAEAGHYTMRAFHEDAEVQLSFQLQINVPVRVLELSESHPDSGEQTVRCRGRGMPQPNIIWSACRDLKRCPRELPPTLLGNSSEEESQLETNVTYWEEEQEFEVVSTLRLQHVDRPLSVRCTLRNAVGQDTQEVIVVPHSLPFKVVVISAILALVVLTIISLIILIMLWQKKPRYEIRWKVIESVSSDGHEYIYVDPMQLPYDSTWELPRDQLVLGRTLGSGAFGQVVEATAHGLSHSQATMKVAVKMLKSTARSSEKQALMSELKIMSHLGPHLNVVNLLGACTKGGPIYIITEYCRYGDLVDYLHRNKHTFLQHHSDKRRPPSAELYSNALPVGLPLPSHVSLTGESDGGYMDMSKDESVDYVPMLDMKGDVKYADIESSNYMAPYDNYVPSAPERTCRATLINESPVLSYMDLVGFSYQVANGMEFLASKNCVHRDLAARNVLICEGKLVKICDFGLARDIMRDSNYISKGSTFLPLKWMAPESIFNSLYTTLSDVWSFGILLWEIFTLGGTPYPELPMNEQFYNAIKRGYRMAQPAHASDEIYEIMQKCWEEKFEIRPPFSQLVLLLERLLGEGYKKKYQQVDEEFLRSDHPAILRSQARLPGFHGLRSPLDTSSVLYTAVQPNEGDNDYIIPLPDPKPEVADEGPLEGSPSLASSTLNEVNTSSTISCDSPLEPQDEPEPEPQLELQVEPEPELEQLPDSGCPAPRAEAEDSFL
Sequence of MAPK11 (Q15759 whole entry): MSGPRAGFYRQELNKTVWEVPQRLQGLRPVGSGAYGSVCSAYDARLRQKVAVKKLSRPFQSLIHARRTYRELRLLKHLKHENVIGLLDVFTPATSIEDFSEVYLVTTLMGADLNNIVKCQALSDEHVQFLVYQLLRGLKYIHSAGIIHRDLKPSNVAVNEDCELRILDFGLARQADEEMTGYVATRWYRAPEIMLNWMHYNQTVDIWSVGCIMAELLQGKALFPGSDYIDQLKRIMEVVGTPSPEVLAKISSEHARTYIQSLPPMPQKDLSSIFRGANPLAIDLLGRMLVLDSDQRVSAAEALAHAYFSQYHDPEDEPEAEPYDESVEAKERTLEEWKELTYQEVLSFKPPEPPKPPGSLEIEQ
T1 sequence (Q15418 whole entry): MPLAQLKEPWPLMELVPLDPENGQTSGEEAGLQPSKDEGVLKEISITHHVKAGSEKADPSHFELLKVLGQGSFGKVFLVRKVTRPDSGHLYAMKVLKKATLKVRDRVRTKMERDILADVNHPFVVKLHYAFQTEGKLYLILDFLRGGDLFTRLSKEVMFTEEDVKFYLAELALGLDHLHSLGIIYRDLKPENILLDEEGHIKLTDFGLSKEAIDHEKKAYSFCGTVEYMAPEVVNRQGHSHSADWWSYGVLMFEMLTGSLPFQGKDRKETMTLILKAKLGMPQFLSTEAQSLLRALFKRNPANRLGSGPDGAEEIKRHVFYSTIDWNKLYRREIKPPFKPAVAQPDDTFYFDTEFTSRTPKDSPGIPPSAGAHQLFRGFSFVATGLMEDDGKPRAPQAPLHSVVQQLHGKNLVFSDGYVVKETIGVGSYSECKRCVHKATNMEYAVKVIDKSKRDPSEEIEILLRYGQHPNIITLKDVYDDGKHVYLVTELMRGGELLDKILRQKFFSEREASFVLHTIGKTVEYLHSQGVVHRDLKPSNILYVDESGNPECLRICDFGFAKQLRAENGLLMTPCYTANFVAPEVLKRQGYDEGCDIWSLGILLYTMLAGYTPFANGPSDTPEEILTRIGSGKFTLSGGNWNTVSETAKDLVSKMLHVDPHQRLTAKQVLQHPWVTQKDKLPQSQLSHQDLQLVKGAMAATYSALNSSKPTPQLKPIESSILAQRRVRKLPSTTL
Sequence of STK24 (Q9Y6E0 whole entry): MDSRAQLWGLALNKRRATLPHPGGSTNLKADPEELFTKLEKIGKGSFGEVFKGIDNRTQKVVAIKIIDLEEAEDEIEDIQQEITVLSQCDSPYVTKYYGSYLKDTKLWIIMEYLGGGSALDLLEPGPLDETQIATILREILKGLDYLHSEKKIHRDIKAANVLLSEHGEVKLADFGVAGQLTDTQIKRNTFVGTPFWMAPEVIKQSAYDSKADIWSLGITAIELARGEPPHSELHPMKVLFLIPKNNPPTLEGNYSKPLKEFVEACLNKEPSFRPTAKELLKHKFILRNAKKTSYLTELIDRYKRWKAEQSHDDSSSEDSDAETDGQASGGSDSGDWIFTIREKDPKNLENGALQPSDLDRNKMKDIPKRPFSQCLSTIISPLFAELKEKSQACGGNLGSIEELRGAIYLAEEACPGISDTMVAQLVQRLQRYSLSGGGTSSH
Sequence of ACVR1B (P36896 whole entry): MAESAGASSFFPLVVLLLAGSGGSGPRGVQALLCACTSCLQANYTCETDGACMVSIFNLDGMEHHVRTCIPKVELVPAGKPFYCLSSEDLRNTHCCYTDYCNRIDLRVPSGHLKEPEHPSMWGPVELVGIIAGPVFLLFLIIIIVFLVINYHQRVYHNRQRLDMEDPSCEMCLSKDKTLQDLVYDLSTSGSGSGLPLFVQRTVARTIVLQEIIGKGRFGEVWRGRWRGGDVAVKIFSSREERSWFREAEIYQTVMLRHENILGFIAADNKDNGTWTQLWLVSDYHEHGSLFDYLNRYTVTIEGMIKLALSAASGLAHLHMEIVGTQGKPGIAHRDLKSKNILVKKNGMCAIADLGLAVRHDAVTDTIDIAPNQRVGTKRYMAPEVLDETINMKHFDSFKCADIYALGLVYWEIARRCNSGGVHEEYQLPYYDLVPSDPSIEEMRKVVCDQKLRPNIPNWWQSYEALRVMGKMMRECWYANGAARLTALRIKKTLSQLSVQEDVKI

Question: `Oc1ccc(C2=Cc3ccc(O)cc3OC2)cc1` [compound 1, idronoxil] was tested. Which remaining binding at 10 µM [1] did it give?
Answer: 18%

Question: What about the remaining binding at 10 µM [2] of the same molecule?
Answer: 26%

Question: What about the remaining binding at 10 µM [3] of the same molecule?
Answer: 97%

Question: What about the remaining binding at 10 µM [4] of the same molecule?
Answer: 90%

Question: And the remaining binding at 10 µM [5]?
Answer: 89%

Question: What about the remaining binding at 10 µM [6] of the same molecule?
Answer: 97%

Question: And the remaining binding at 10 µM [7]?
Answer: 88%

Question: And the remaining binding at 10 µM [8]?
Answer: 69%

Question: And the remaining binding at 10 µM [9]?
Answer: 97%

Question: What about the remaining binding at 10 µM [10] of the same molecule?
Answer: 78%

Question: What about the remaining binding at 10 µM [11] of the same molecule?
Answer: 73%

Question: What about the remaining binding at 10 µM [12] of the same molecule?
Answer: 62%

Question: And the remaining binding at 10 µM [13]?
Answer: 87%

Question: And the remaining binding at 10 µM [14]?
Answer: 85%

Question: What about the remaining binding at 10 µM [15] of the same molecule?
Answer: 79%

Question: What about the remaining binding at 10 µM [16] of the same molecule?
Answer: 97%

Question: What about the remaining binding at 10 µM [17] of the same molecule?
Answer: 100%

Question: What about the remaining binding at 10 µM [18] of the same molecule?
Answer: 89%

Question: What about the remaining binding at 10 µM [19] of the same molecule?
Answer: 67%

Question: What about the remaining binding at 10 µM [20] of the same molecule?
Answer: 84%
